From patent publication US9193695B2, “1, 2, 4-triazolone derivative and use thereof as an antagonist on the arginine-vasopressin 1B receptor” (TAISHO PHARMACEUTICAL CO., LTD., priority 2010, dated 2015) come the findings set out here.

SMILES strings stand for the structures.

In assay [1] the target is T1, Human V1b receptor (Homo sapiens, UniProt P47901).
T1 sequence (P47901 1-424): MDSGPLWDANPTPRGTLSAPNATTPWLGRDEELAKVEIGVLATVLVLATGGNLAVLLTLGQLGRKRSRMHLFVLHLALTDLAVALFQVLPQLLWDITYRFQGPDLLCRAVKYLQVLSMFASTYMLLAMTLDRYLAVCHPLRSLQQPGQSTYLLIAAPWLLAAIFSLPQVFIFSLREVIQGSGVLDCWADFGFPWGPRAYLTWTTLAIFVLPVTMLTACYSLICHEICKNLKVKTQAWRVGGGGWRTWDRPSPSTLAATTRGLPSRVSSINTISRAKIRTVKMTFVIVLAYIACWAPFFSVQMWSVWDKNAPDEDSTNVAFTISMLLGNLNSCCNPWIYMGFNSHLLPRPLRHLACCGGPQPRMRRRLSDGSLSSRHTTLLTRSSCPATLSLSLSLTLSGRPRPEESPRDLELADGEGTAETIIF
The assay can be described thus: Measurement of V1b receptor antagonistic activity (AVP-induced fluorescence, Fluo-4, FDSS). Also on record: expressed in transfected cells. It is filed as cell-based. On the procedure: Measurement of V1b Receptor Antagonistic Activity
CHO cells (ATCC) stably expressing human V1b receptor were cultured in Ham's F-12 medium (containing 10% FBS and 0.5 mg/mL Geneticin). The cells were seeded the day before the test at 20,000 cells/well in a 96-well poly-D-lysine coated black plate. On the day of the test, the culture medium was removed, and a loading solution (1×HBSS, 10 mmol/L HEPES, 0.1% bovine serum albumin, 1.25 mmol/L Probenecid, 0.02% Pluronic F-127, 1.5 μmol/L Fluo-4-AM, pH 7.4) was added to each well, followed by incubation in a CO2 incubator for 1 hour. After the incubation, the loading solution was removed. A test solution (1×HBSS, 10 mmol/L HEPES, 0.1% bovine serum albumin, 1.25 mmol/L Probenecid, pH 7.4) containing any one of test compounds was added to wells, followed by incubation in a CO2 incubator for 30 minutes. The test compound was serially diluted with DMSO so as to be assayed at a final concentration of 0.1 nmol/L to 1 μmol/L. After the incubation, measurement of fluorescence intensity levels and addition of AVP were performed with Functional Drug Screening System (FDSS, Hamamatsu Photonics K.K.). […] The fluorescence level in the well not containing any test compound and AVP was defined as 0%, and the fluorescence level in the well not containing any test compound but containing AVP was defined as 100%. A dose-response curve was plotted from fluorescence levels after the addition of AVP in the presence of a test compound at various concentrations, and the 50% inhibitory concentration (IC50 value) of the compound was calculated.

The target in assay [2] is T1, Human V1b receptor. The assay can be described thus: Binding test for V1b receptor ([3H]AVP displacement, crude membrane preparation). Details: expressed in transfected cells; host or cells: 293FT cells (Invitrogen), transient expression; crude membrane preparation. Particulars: [3H]AVP 0.4 to 1 nmol/L; membranes of 293FT cells transiently expressing human V1b receptor; room temperature, 60 minutes. In a few lines:
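Crude membranes from 293FT cells transiently expressing human V1b, in 50 mmol/L Tris-HCl pH 7.4 with 10 mmol/L MgCl2 and 0.1% BSA, incubated with compound (0.01 nmol/L–1 μmol/L) and [3H]AVP (0.4–1 nmol/L) for 60 min at room temperature. Filter-bound radioactivity counted; 10 μmol/L unlabeled AVP defined 0%. IC50 from dose-response curve.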

The mark [3] stands for this setting: CHO cells stably expressing human V1b receptor, AVP 2.5 nmol/L, 30 minutes preincubation, read-out: IC50 value (V1b receptor antagonistic activity).

Regarding `CC(C)NC(=O)Cn1c(-c2cccc(Cl)c2)nn(-c2ccc(CCN3CCOCC3)cc2)c1=O` [Aa-1, 2-[3-(3-Chlorophenyl)-1-{4-[2-(morpholin-4-yl)ethyl]phenyl}-5-oxo-1,5-dihydro-4H-1,2,4-triazol-4-yl]-N-(propan-2-yl)acetamide], the IC50 (as a rule, the point on the concentration scale where inhibition reaches its midpoint) came out at 9.3 nM in assay [1] (setting [3]) and 8.6 nM in assay [2].

Turning to `CC(C)NC(=O)Cn1c(-c2cccc(Cl)c2)nn(-c2ccc(CCN3C4CCC3CC(O)C4)cc2)c1=O` (centres unmarked) [Aa-8, 2-[3-(3-Chlorophenyl)-1-{4-[2-(3-hydroxy-8-azabicyclo[3.2.1]oct-8-yl)ethyl]phenyl}-5-oxo-1,5-dihydro-4H-1,2,4-triazol-4-yl]-N-(propan-2-yl)acetamide], the IC50 in assay [1] (setting [3]) is 23 nM; in assay [2] it was 4.1 nM.

For the compound `CC(C)NC(=O)Cn1c(-c2cccc(Cl)c2)nn(-c2ccc(CCN3C4CCC3COC4)cc2)c1=O` [Aa-10, 2-[3-(3-Chlorophenyl)-1-{4-[2-(3-oxa-8-azabicyclo[3.2.1]oct-8-yl)ethyl]phenyl}-5-oxo-1,5-dihydro-4H-1,2,4-triazol-4-yl]-N-(propan-2-yl)acetamide], the IC50 was found to be 20 nM in assay [1] and 4.7 nM in assay [2].

On to `CC(C)NC(=O)Cn1c(-c2cccc(Cl)c2)nn(-c2ccc(CCN3CCOCC3)cn2)c1=O` [Ab-2, 2-[3-(3-Chlorophenyl)-1-{5-[2-(morpholin-4-yl)ethyl]pyridin-2-yl}-5-oxo-1,5-dihydro-4H-1,2,4-triazol-4-yl]-N-(propan-2-yl)acetamide], for which the figures for the IC50 in assay [1] (setting [3]) and in assay [2] were 13 nM and 41 nM, respectively.

On to `CC(C)NC(=O)Cn1c(-c2cccc(Cl)c2)nn(-c2ccc(CCN3C4CCC3COC4)cn2)c1=O` [Ab-5, 2-[3-(3-Chlorophenyl)-1-{5-[2-(3-oxa-8-azabicyclo[3.2.1]oct-8-yl)ethyl]pyridin-2-yl}-5-oxo-1,5-dihydro-4H-1,2,4-triazol-4-yl]-N-(propan-2-yl)acetamide], for which the values for the IC50 in assay [1] (setting [3]) and in assay [2] were 29 nM and 8.6 nM, respectively.

In the case of `COc1cccc(-c2nn(-c3ccc(CCN4CCOCC4)cc3)c(=O)n2CC(=O)NC(C)C)c1` [Ba-2, 2-[3-(3-Methoxyphenyl)-1-{4-[2-(morpholin-4-yl)ethyl]phenyl}-5-oxo-1,5-dihydro-4H-1,2,4-triazol-4-yl]-N-(propan-2-yl)acetamide], the 50% inhibitory concentration (IC50) in assay [1] (setting [3]) turned out to be 30 nM; in assay [2] it was 19 nM.

Take `COc1cc(-c2nn(-c3ccc(CCN4CCOCC4)cc3)c(=O)n2CC(=O)NC(C)C)ccc1F` [Ca-2, 2-[3-(4-Fluoro-3-methoxyphenyl)-1-{4-[2-(morpholin-4-yl)ethyl]phenyl}-5-oxo-1,5-dihydro-4H-1,2,4-triazol-4-yl]-N-(propan-2-yl)acetamide]: the IC50 in assay [1] (setting [3]) worked out at 11 nM; in assay [2], 10 nM.

In the case of `COc1cc(-c2nn(-c3ccc(CCN4C5CCC4CC(O)C5)cc3)c(=O)n2CC(=O)NC(C)C)ccc1F` (centres unmarked) [Ca-3, 2-[3-(4-Fluoro-3-methoxyphenyl)-1-{4-[2-(3-hydroxy-8-azabicyclo[3.2.1]oct-8-yl)ethyl]phenyl}-5-oxo-1,5-dihydro-4H-1,2,4-triazol-4-yl]-N-(propan-2-yl)acetamide], the IC50 stood at 16 nM in assay [1] (setting [3]) and 6 nM in assay [2].

On to `COc1cc(-c2nn(-c3ccc(CCN4CCOCC4)cn3)c(=O)n2CC(=O)NC(C)C)ccc1F` [Cb-2, 2-[3-(4-Fluoro-3-methoxyphenyl)-1-{5-[2-(morpholin-4-yl)ethyl]pyridin-2-yl}-5-oxo-1,5-dihydro-4H-1,2,4-triazol-4-yl]-N-(propan-2-yl)acetamide], for which the values for the IC50 in assay [1] (setting [3]) and in assay [2] were 26 nM and 17 nM, respectively.

In the case of `CC(C)NC(=O)Cn1c(-c2ccc(F)c(Cl)c2)nn(-c2ccc(CCN3CCOCC3)cc2)c1=O` [Da-2, 2-[3-(3-Chloro-4-fluorophenyl)-1-{4-[2-(morpholin-4-yl)ethyl]phenyl}-5-oxo-1,5-dihydro-4H-1,2,4-triazol-4-yl]-N-(propan-2-yl)acetamide], the IC50 in assay [1] (setting [3]) is 6.3 nM; in assay [2] it was 4.3 nM.

As to `CC(C)NC(=O)Cn1c(-c2ccc(F)c(Cl)c2)nn(-c2ccc(CCN3C4CCC3COC4)cc2)c1=O` [Da-5, 2-[3-(3-Chloro-4-fluorophenyl)-1-{4-[2-(3-oxa-8-azabicyclo[3.2.1]oct-8-yl)ethyl]phenyl}-5-oxo-1,5-dihydro-4H-1,2,4-triazol-4-yl]-N-(propan-2-yl)acetamide], the IC50 in assay [1] (setting [3]) was determined as 6 nM; in assay [2] it was 2.5 nM.

In the case of `CC(C)NC(=O)Cn1c(-c2ccc(F)c(Cl)c2)nn(-c2ccc(CCN3C4CCC3CC(O)C4)cc2)c1=O` (centres unmarked) [Da-6, 2-[3-(3-Chloro-4-fluorophenyl)-1-{4-[2-(3-hydroxy-8-azabicyclo[3.2.1]oct-8-yl)ethyl]phenyl}-5-oxo-1,5-dihydro-4H-1,2,4-triazol-4-yl]-N-(propan-2-yl)acetamide], the figures for the IC50 in assay [1] and in assay [2] were 12 nM and 4.4 nM, respectively.

For the compound `CC(C)NC(=O)Cn1c(-c2ccc(F)c(Cl)c2)nn(-c2ccc(CCN3CC4(COC4)C3)cn2)c1=O` [Db-3, 2-[3-(3-Chloro-4-fluorophenyl)-1-{5-[2-(2-oxa-6-azaspiro[3.3]hept-6-yl)ethyl]pyridin-2-yl}-5-oxo-1,5-dihydro-4H-1,2,4-triazol-4-yl]-N-(propan-2-yl)acetamide], the IC50 in assay [2] is 10 nM.

`CC(C)NC(=O)Cn1c(-c2ccc(F)c(Cl)c2)nn(-c2ccc(CCN3C4CCC3COC4)cn2)c1=O` [Db-4, 2-[3-(3-Chloro-4-fluorophenyl)-1-{5-[2-(3-oxa-8-azabicyclo[3.2.1]oct-8-yl)ethyl]pyridin-2-yl}-5-oxo-1,5-dihydro-4H-1,2,4-triazol-4-yl]-N-(propan-2-yl)acetamide] had a 50% inhibitory concentration (IC50) in assay [2] of 2.9 nM.

As for `CC(C)NC(=O)Cn1c(-c2cccc(C#N)c2)nn(-c2ccc(CCN3CCOCC3)cc2)c1=O` [Ea-2, 2-[3-(3-Cyanophenyl)-1-{4-[2-(morpholin-4-yl)ethyl]phenyl}-5-oxo-1,5-dihydro-4H-1,2,4-triazol-4-yl]-N-(propan-2-yl)acetamide], the IC50 in assay [2] was determined as 48 nM.

`CC(C)NC(=O)Cn1c(-c2cccc(F)c2)nn(-c2ccc(CCN3CCOCC3)cc2)c1=O` [Fa-1, 2-[3-(3-Fluorophenyl)-1-{4-[2-(morpholin-4-yl)ethyl]phenyl}-5-oxo-1,5-dihydro-4H-1,2,4-triazol-4-yl]-N-(propan-2-yl)acetamide] showed an IC50 in assay [2] of 46 nM.

`CC(C)NC(=O)Cn1c(-c2ccccc2)nn(-c2ccc(CCN3CCOCC3)cc2)c1=O` [Ga-1, 2-(1-{4-[2-(Morpholin-4-yl)ethyl]phenyl}-5-oxo-3-phenyl-1,5-dihydro-4H-1,2,4-triazol-4-yl)-N-(propan-2-yl)acetamide] showed an IC50 in assay [2] of 114 nM.

In turn, `CC(C)NC(=O)Cn1c(-c2cccc(S(C)(=O)=O)c2)nn(-c2ccc(CCN3CCOCC3)cc2)c1=O` [Ia-1, 2-(3-[3-(Methylsulfonyl)phenyl]-1-{4-[2-(morpholin-4-yl)ethyl]phenyl}-5-oxo-1,5-dihydro-4H-1,2,4-triazol-4-yl)-N-(propan-2-yl)acetamide] displayed an IC50 in assay [2] of 46 nM.

`COc1cccc(-c2nn(-c3ccc(CCN4CCOCC4)cc3)c(=O)n2CC(=O)NC(C)C)n1` [Ja-1, 2-[3-(6-Methoxypyridin-2-yl)-1-{4-[2-(morpholin-4-yl)ethyl]phenyl}-5-oxo-1,5-dihydro-4H-1,2,4-triazol-4-yl]-N-(propan-2-yl)acetamide] showed an IC50 in assay [2] of 16 nM.

As to `COc1cccc(-c2nn(-c3ccc(CCN4C5CCC4COC5)cc3)c(=O)n2CC(=O)NC(C)C)n1` [Ja-2, 2-[3-(6-Methoxypyridin-2-yl)-1-{4-[2-(3-oxa-8-azabicyclo[3.2.1]oct-8-yl)ethyl]phenyl}-5-oxo-1,5-dihydro-4H-1,2,4-triazol-4-yl]-N-(propan-2-yl)acetamide], the IC50 in assay [2] worked out at 20 nM.
